Drawing on the supplement of paper PMC11061612, this text covers Bliss excess for 7 molecules.

SMILES strings stand for the structures.

What all share (experiment): Bliss excess, mean over the matrix (fraction); higher = more synergy
Experiment [1] deals with A704 (Kidney Carcinoma). In short, it runs like this:
(§1)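 Cell lines grown in DMEM/F12 or RPMI with 10% FBS were plated in 1536-well plates and held 24 hours at 37°C, 5% CO2 before 72 hours of exposure to two-drug dose matrices, with DMSO typically at 0.2%. CellTiter-Glo 2.0 luminescence gave viability, which was converted to inhibition. Vehicle wells were set to 0 and blank wells to 1. Combination Emax is the second-highest inhibition in the matrix, and Bliss excess is the observed combination effect minus the expected EA + EB − EA·EB, where EA and EB are the single-agent effects.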

Experiment [2] relates to BT-20 (Breast Carcinoma). Put shortly:
as §1

Experiment [3] deals with DG-75 (Burkitt's Lymphoma). Put shortly: as §1
For experiment [4], the system named is EW-3 (Ewing's Sarcoma). Put shortly: as §1
Experiment [5] deals with GI-1 (Glioblastoma). In short, it runs like this: as §1
In experiment [6] the test system is HC-1 (Other Blood Carcinomas). Put shortly: as §1
Experiment [7] concerns HSC-2 (Oral Cavity Carcinoma). Put shortly:
as §1

Experiment [8] concerns IMR-5 (Neuroblastoma). Put shortly:
as §1

The test system of experiment [9] is KP-2 (Pancreatic Carcinoma). In short, it runs like this:
as §1

The test system of experiment [10] is LC4-1 (B-Lymphoblastic Leukemia). In short, it runs like this: as §1
The subject of experiment [11] is LOU-NH91 (Squamous Cell Lung Carcinoma). In short, it runs like this: as §1
Experiment [12] deals with NCI-H1573 (Lung Adenocarcinoma). In short, it runs like this:
as §1

Experiment [13] concerns NCI-H2405 (Lung Adenocarcinoma). In short, it runs like this: as §1
The test system of experiment [14] is NCI-H513 (Other Solid Carcinomas). In short, it runs like this: as §1
Experiment [15] deals with NCI-N87 (Gastric Carcinoma). In short, it runs like this:
as §1

The subject of experiment [16] is OCUM-1 (Gastric Carcinoma). In short, it runs like this:
as §1

The test system of experiment [17] is PF-382 (T-Lymphoblastic Leukemia). In short, it runs like this:
as §1

The subject of experiment [18] is RPMI-7951 (Melanoma). Put shortly: as §1
The subject of experiment [19] is SNU-C1 (Colorectal Carcinoma). Put shortly:
as §1

Take `COc1cccc2c1C(=O)c1c(O)c3c(c(O)c1C2=O)C[C@@](O)(C(=O)CO)C[C@@H]3O[C@H]1C[C@H](N)[C@H](O)[C@H](C)O1` [Doxorubicin] + Cc1cc2ncnn2cc1Nc1ncc2c(n1)n(C1CCOCC1)c(=O)n2C [AZD7648] (first compound max 1 µM, 7x7, partner max 10 µM): the Bliss excess is -0.023 in experiment [1]; 0.0371 in [2]; 0.0787 in experiment [3]; 0.005 in experiment [4]; 0.107 in experiment [5]; 0.0693 in experiment [6]. Moreover, the Bliss excess in experiment [7] was 0.0891; in experiment [8], 0.194; in experiment [9], 0.0223; in experiment [10], 0.111; in [11] it was 0.0236; in experiment [12] it was -0.0038. For the same molecule, the Bliss excess in experiment [13] was -0.0042; in experiment [14], 0.0341; in [15] it was -0.0298; in [16] it was 0.0162; in experiment [17] it was 0.109; in [18], 0.0709. Moreover, the Bliss excess in [19] is -0.0037.
Turning to `COc1cccc(OCCCN)c1-c1cc(Nc2cnc(C#N)cn2)n[nH]1` [Prexasertib] + Cc1cc2ncnn2cc1Nc1ncc2c(n1)n(C1CCOCC1)c(=O)n2C [AZD7648] (first compound max 1 µM, 7x7, partner max 10 µM), the Bliss excess in [1] is 0.0144; in [2], -0.0536; in [3], -0.055; in experiment [4], 0.0201; in [5] it was -0.019; in experiment [6] it was 0.0069. In addition, the Bliss excess in experiment [7] was -0.0403; in experiment [8], -0.0065; in experiment [9], 0.0258; in [10], -0.0209; in experiment [11] it was 0.007; in experiment [12], 0.0058. The Bliss excess in [13] is -0.0386; in experiment [14] it was 0.0134; in experiment [15] it was -0.0119; in [16], 0.0005; in experiment [17] it was -0.0131; in experiment [18] it was 0.0049. Moreover, the Bliss excess in experiment [19] was -0.0873.
For `Cc1cc2ncnn2cc1Nc1ncc2c(n1)n(C1CCOCC1)c(=O)n2C` [AZD7648] + C=CCn1c(=O)c2cnc(Nc3ccc(N4CCN(C)CC4)cc3)nc2n1-c1cccc(C(C)(C)O)n1 [AZD1775] (first compound max 10 µM, partner max 1 µM), the Bliss excess was -0.0409 in experiment [1]; -0.0186 in experiment [2]; -0.0652 in experiment [3]; -0.0894 in experiment [4]; 0.0071 in [5]; -0.106 in [6]. Moreover, the Bliss excess in experiment [7] was 0.0566; in experiment [8], -0.0146; in experiment [9], -0.014; in [10] it was -0.001; in [11] it was 0.012; in experiment [12], -0.0215. Moreover, the Bliss excess in experiment [13] was -0.0064; in [14], 0.0054; in experiment [15], -0.0342; in experiment [16], -0.0244; in experiment [17], -0.0029; in experiment [18], -0.039. Also, in experiment [19], the Bliss excess was -0.0209.
For the molecule `C[C@@H]1COCCN1c1cc(C2([S@](C)(=N)=O)CC2)nc(-c2ccnc3[nH]ccc23)n1` [AZD6738] + O=C(c1cc(Cc2n[nH]c(=O)c3ccccc23)ccc1F)N1CCN(C(=O)C2CC2)CC1 [Olaparib] (first compound max 10 µM, 7x7, partner max 10 µM), the Bliss excess was -0.0282 in experiment [1]; 0.0472 in experiment [2]; -0.0619 in experiment [3]; -0.0558 in [4]; 0.0039 in experiment [5]; -0.0238 in [6]. Further, the Bliss excess was 0.0825 in experiment [7]; 0.0432 in [8]; 0.0024 in [9]; -0.009 in [10]; 0.0035 in [11]; 0.0201 in experiment [12]. Also, the Bliss excess in [13] was 0.0132; in [14], 0.0157; in experiment [15], 0.0043; in experiment [16] it was -0.0399; in [17], -0.0167; in [18] it was 0.0207. The Bliss excess in [19] was -0.0345.
With `CS(=O)(=O)CCNCc1ccc(-c2ccc3ncnc(Nc4ccc(OCc5cccc(F)c5)c(Cl)c4)c3c2)o1` [Lapatinib] + NC1(c2ccc(-c3nc4ccn5c(=O)[nH]nc5c4cc3-c3ccccc3)cc2)CCC1 [MK-2206] (first compound max 10 µM, 7x7, partner max 10 µM), the Bliss excess is 0.0455 in experiment [4]; 0.0275 in experiment [5]; 0.0806 in experiment [7]; -0.0073 in experiment [10]; -0.0055 in experiment [12]; -0.111 in experiment [13]. In addition, the Bliss excess in experiment [14] is -0.0369; in experiment [15] it was 0.0091; in experiment [16] it was -0.0313; in experiment [17], -0.0144; in [19], -0.0184.
Take `CCc1c2c(nc3ccc(O)cc13)-c1cc3c(c(=O)n1C2)COC(=O)[C@]3(O)CC` [SN-38] + CN(C)CCCOc1ccc(-c2ccc3ncc4c(c3c2)n(C2CCOCC2)c(=O)n4C)cn1 [AZD0156] (first compound max 0.3 µM, 7x7, partner max 1 µM): the Bliss excess in experiment [1] is -0.0533; in experiment [2], 0.0684; in [3], 0.0751; in experiment [4], -0.0679; in [5] it was 0.0399; in [6], -0.0261. For the same molecule, the Bliss excess in experiment [7] was 0.0085; in [8] it was 0.0314; in experiment [9], 0.0154; in experiment [10] it was -0.0587; in experiment [11], 0.011; in experiment [12] it was -0.0359. Besides, the Bliss excess is -0.0082 in experiment [13]; 0.0021 in experiment [14]; -0.0447 in [15]; -0.0395 in [16]; 0.0739 in [17]; 0.0647 in experiment [18]. Moreover, the Bliss excess in experiment [19] was -0.0125.
Consider `C=CCn1c(=O)c2cnc(Nc3ccc(N4CCN(C)CC4)cc3)nc2n1-c1cccc(C(C)(C)O)n1` [AZD1775] + C[C@@H]1COCCN1C2=NC(=NC(=C2)C3(CC3)[S@](=N)(=O)C)C4=C5C=CNC5=NC=C4 [AZD6738] (first compound max 1 µM, partner max 10 µM), for which the Bliss excess was -0.0022 in experiment [1]; 0.0448 in experiment [2]; 0.0482 in [3]; -0.131 in experiment [4]; 0.0753 in experiment [5]; -0.017 in experiment [6]. In addition, the Bliss excess in [7] is 0.0675; in experiment [8], 0.085; in [9] it was 0.0329; in experiment [10] it was -0.0011; in experiment [11], -0.0111; in [12], 0.0215. Moreover, the Bliss excess in experiment [13] is -0.0039; in experiment [14], -0.0058; in [15], -0.0824; in experiment [16] it was -0.0391; in [17], -0.0022; in experiment [18], 0.0368. Besides, the Bliss excess in [19] was found to be 0.0303.
